pIC50: −log10 of the molar value.
Biological target: Induced myeloid leukemia cell differentiation protein Mcl-1 (Homo sapiens) (UniProt Q07820)
Assay: Mcl-1/Noxa binding inhibitor potency, dose response, biochemical, TR-FRET (AID 1417)
Conditions: Mcl-1/Noxa peptide interaction, cell-free TR-FRET (terbium/rhodamine), 2 h; measured here: absolute IC50

Induced myeloid leukemia cell differentiation protein Mcl-1 (Homo sapiens), sequence (Q07820 whole entry, looked up): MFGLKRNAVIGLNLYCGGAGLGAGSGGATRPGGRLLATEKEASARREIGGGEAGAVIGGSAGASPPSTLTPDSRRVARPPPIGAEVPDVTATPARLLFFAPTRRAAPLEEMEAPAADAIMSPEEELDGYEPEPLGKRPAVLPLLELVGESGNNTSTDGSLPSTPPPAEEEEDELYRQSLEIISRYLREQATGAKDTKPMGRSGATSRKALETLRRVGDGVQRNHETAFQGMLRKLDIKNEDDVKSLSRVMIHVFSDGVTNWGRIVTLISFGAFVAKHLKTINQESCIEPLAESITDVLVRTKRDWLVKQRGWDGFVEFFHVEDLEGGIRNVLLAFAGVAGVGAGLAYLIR

| Structure (SMILES) | pIC50 |
| --- | --- |
| CC(=O)N1C(=O)/C(=C2\SC(=S)N(NC(=O)c3ccc(O)cc3)C2=O)c2ccccc21 | 5.81 |
| Cc1cccc(C(=O)N=c2c(C#N)cc3c(=O)n4cccc(C)c4nc3n2Cc2ccco2)c1 | 5.37 |
| Cc1nnc(NC(=O)c2sc3nc(-c4cccs4)cc(C(F)(F)F)c3c2N)s1 | 5.80 |
| Cc1cc(/C=N/n2c(COc3ccccc3)nc3ccccc3c2=O)c(O)c([N+](=O)[O-])c1 | 5.81 |
| Cc1ccc(-n2cccc2/C=C2/C(=N)N3C(=NC2=O)SN=C3S(C)(=O)=O)cc1Cl | 5.96 |
| COc1ccc(C(=O)O)cc1NC(=S)NC(=O)c1ccc(-c2ccc(Cl)cc2)o1 | < 4.27 |
| CCN(CC)c1ccc(NC(=O)Nc2ccc(C(C)=O)cc2)cc1 | < 4.27 |
| Cc1ccc(OCCCC(=O)Nc2ccccc2C(F)(F)F)cc1 | 4.36 |
| COc1cc2c(cc1O)C[C@H]1NCCc3cc4c(c-2c31)OCO4 | 5.28 |
| CCN(CC)c1nc2c3c(nc4c(c3c1C#N)CC(=O)N4c1ccc(Cl)cc1)NC(C)=N2 | 5.50 |
| COc1ccccc1/C=C1/SC(=O)N(CCC(=O)Nc2ccc(S(=O)(=O)Nc3nccs3)cc2)C1=O | 5.54 |
| O=C1Nc2ccccc2/C1=N/N=C/c1ccc(-c2ccc([N+](=O)[O-])cc2)o1 | > 6.40 |
| CCc1ccc(NC(=O)N(CCN2CCOCC2)Cc2ccc3c(c2)CCCN3CC)cc1 | < 4.27 |
| COC(=O)c1ccc(=O)c2nc3/c(=C/O)c(O)cc(=O)c3[nH]c12 | > 6.40 |
| OCCNc1nc(Nc2ccccc2)nc(Nc2ccccc2)n1 | < 4.27 |
| C=C(C)C(=O)Nc1cccc(C2=NOC3(C2)C[C@@H](C(N)=O)N(C(=O)c2cc([N+](=O)[O-])cc([N+](=O)[O-])c2C)C3)c1 (stereo partly specified) | 5.39 |
| O=C(Nc1ccc(Nc2ccncc2)cc1)c1ccc(Nc2ccnc3ccc([N+](=O)[O-])cc23)cc1[N+](=O)[O-] | 5.51 |
| O=C(O)CSc1cc(C(=O)c2cc(F)ccc2O)cn2c(=O)c3c(-c4ccccc4)csc3nc12 | 5.67 |
| CCOC(=O)c1cc(-c2ccco2)nc2c1c(C)nn2-c1cccc(Cl)c1 | 5.63 |
| Cc1ccc(N=Nc2c(N)[nH]n3c(=O)cc(-c4ccccc4)nc23)cc1 | 4.85 |
| c1cncc(C2Nc3cccc4cccc(c34)N2)c1 | 5.14 |
| O=C(Nc1nc(-c2ccncc2)cs1)c1ccco1 | 5.44 |
| COc1ccc(N2C(=O)/C(=C/C=C/c3ccccc3[N+](=O)[O-])C(=O)NC2=S)cc1 | > 6.40 |
| Cc1ccc(CNC(=O)c2ccc3c(=O)[nH]c4c(C(=O)NCC5CCCO5)sc(=S)n4c3c2)cc1 (stereo unspecified) | 4.95 |
| Cc1c(NS(=O)(=O)c2cc(NC(=O)CCN3CCCC(C)C3)ccc2Cl)c(=O)n(-c2ccccc2)n1C (stereo unspecified) | < 4.27 |
| Cc1sc(NC(=O)c2cc(-c3ccc(Cl)cc3)nc3ccccc23)c(C(N)=O)c1C | 4.74 |

| Structure (SMILES) | pIC50 |
| --- | --- |
| O=c1c2ccccc2nc(-c2ccco2)n1-c1cccnc1 | < 4.27 |
| C=C(C)C(=O)Nc1cccc(C2=NOC3(C2)C[C@H](C(N)=O)N(C(=O)C(c2ccccc2)c2ccccc2)C3)c1 (stereo partly specified) | 5.35 |
| CCN(CC)c1ccc(/C=N/N2CCN(Cc3ccccc3)CC2)cc1 | < 4.27 |
| Cc1ccc(NS(=O)(=O)c2cc([N+](=O)[O-])ccc2NNC(=S)Nc2cccc(Cl)c2)c(C)c1 | < 4.27 |
| O=c1cc(-c2ccccc2Cl)oc2c(NS(=O)(=O)c3cc(Cl)cc(Cl)c3O)ccc(O)c12 | 5.62 |
| CCOC(=O)C1CCN(c2nc(N)c3c(N)nc(SCC(=O)O)cc3c2C#N)CC1 | > 6.40 |
| Cc1ccc(-n2c(O)c(/C=N/Nc3ccc(S(=O)(=O)N4CCOCC4)cc3[N+](=O)[O-])c3ccccc3c2=O)c(C)c1 | < 4.27 |
| CCOC(=O)c1sc(NC(=O)Nc2ccc(Cl)cc2)cc1C | 5.39 |
| Nc1ncnc2oc(-c3ccco3)c(-c3ccco3)c12 | 5.43 |
| O=c1c2c3nc4ccccc4nc3n(Cc3ccccc3)c2ncn1Cc1ccco1 | < 4.27 |
| O=C1NN(c2ccccc2)C(=O)/C1=C\c1ccc(-c2cc([N+](=O)[O-])ccc2O)o1 | 5.01 |
| O=C(Nc1cccc(Oc2ccc(C(=O)O)c(C(=O)O)c2)c1)c1ccc(-c2ccccc2)cc1 | 5.44 |
| Nc1cc2c(cc1[N+](=O)[O-])OCO2 | 5.16 |
| O=C(O)c1cccc(Cn2c(Cl)c(/C=N/NC(=O)c3cc4ccccc4cc3O)sc2=O)c1 | 5.47 |
| CC(/C=C1\SC(=S)N(CCCC(=O)Nc2ccc(C(=O)O)c(O)c2)C1=O)=C\c1ccccc1 | > 6.40 |
| O=C(O)CCn1cc(C=C2C(=O)NC(=S)NC2=O)c(-c2cc3ccccc3oc2=O)n1 | 5.51 |
| CSCc1nc2sc(C(=O)Nc3nc(C)cs3)c(C)c2c(=O)[nH]1 | 5.39 |
| COCCCNC(=O)/C(C#N)=C/c1ccc(OCC(=O)O)c(OC)c1 | 5.46 |
| CCc1ccc(S(=O)(=O)/N=C2/C=C(Sc3ncn[nH]3)C(=O)c3ccccc32)cc1 | > 6.40 |
| CC(C)(C)c1ccc(CN2N=Nc3ccccc3S2(=O)=O)cc1 | 4.72 |
| CCn1nc(C)c(/C=N/NC(=O)Cc2ccc(Cl)cc2)c1C | < 4.27 |
| Cc1[nH]n(-c2ncc(-c3ccccc3)s2)c(=O)c1C(c1ccc(Br)cc1)C(C#N)C#N (stereo unspecified) | 5.18 |
| COC1=C/C(=C/c2c(N)n3nc(-c4ccc(C)cc4)sc3nc2=O)C=CC1=O | 5.55 |
| CCOc1cc(CNc2ccc(N3CCCC3)cc2)cc(Cl)c1OC | < 4.27 |
| COc1ccc(C(=O)Nc2cccc(/C=C(\CCC(=O)O)c3nc4ccccc4s3)c2)cc1 | 5.40 |
| Oc1ccc(N2CCN(c3ncnc4sc5c(c34)CCC5)CC2)cc1 | 5.18 |

| Structure (SMILES) | pIC50 |
| --- | --- |
| N=C1S/C(=C\c2ccco2)C(=O)N1c1ccc2c(c1)OCO2 | 5.05 |
| COc1ccc(N2CCC(CNC(=S)Nc3cccc(OC)c3)C2)cc1 (stereo unspecified) | < 4.27 |
| Cc1c(N=Nc2c(-c3ccc([N+](=O)[O-])cc3)[nH]n(C(N)=S)c2=O)cccc1[N+](=O)[O-] | > 6.40 |
| Cc1ccc(-n2cccc2/C=C2/C(=N)N3C(=NC2=O)SN=C3S(C)(=O)=O)cc1 | 5.27 |
| Cc1nc2ccc(NC(=O)c3cc([N+](=O)[O-])cc([N+](=O)[O-])c3Cl)cc2s1 | 5.89 |
| Oc1ccc(/C=N/n2cc(-c3ccccc3)[nH]c2=S)cc1 | > 6.40 |
| Cc1ccc(C(=O)COC(=O)CNC(=O)c2ccc(N3C(=O)c4ccccc4C3=O)cc2)cc1C | < 4.27 |
| COc1cc(C(c2nnnn2C2CCCC2)N2CCc3ccccc3C2)ccc1O (stereo unspecified) | > 6.40 |
| CNC(=O)COC(=O)c1cc(-c2ccco2)nc2ccccc12 | 5.50 |
| Cc1ccc2c(c1)C1CN(C)CCC1N2C(=O)Nc1cccc(Cl)c1 (stereo unspecified) | < 4.27 |
| O=[N+]([O-])c1cc(S(=O)(=O)c2ccc(O)c([N+](=O)[O-])c2)ccc1O | 6.07 |
| C=CCn1c(N2CCCCCC2)nc2c1c(=O)n(C)c(=O)n2C | < 4.27 |
| O=C(O)CCCN1C(=O)/C(=C\c2ccc(-c3nc4ccccc4s3)o2)SC1=S | 5.95 |
| COc1ccc2[nH]c3c(=O)n(Cc4ccc(C(=O)N5CCCC5)cc4)c(=S)[nH]c3c2c1 | < 4.27 |
| CC(=O)c1cc(C#N)c(SCc2ccccn2)nc1C | < 4.27 |
| O=C1NC(=S)N(C2CC2)C(=O)/C1=C/c1ccc2c(c1)CCN2CCCCl | 6.14 |
| CCOc1cc(/C=C2\C(=O)N(c3nc(-c4ccc(Br)cc4)cs3)N=C2c2ccccc2)ccc1O | 5.78 |
| CC(C)N1CCc2c(sc(NC(=O)c3cc4cc([N+](=O)[O-])ccc4s3)c2C(N)=O)C1 | 5.40 |
| COc1cnn(-c2ccccc2)c(=O)c1SCc1ccc(Cl)cc1Cl | < 4.27 |
| O=C(Nc1ccc(N2CCCC2)cc1)c1ccccc1F | 5.16 |
| O=C(Nc1nccs1)c1cccc(N2C(=O)c3cccc4c([N+](=O)[O-])ccc(c34)C2=O)c1 | < 4.27 |
| O=Cc1[nH]c2ccccc2c1N(C(=O)CCl)c1ccc([N+](=O)[O-])cc1 | < 4.27 |
| CCOc1cc(/C=N/Nc2nc(-c3cccs3)c(NC(C)=O)s2)ccc1O | > 6.40 |
| O=C(CSc1n[nH]c(=O)[nH]c1=O)Nc1ccc2c(c1)C(=O)c1ccccc1C2=O | < 4.27 |
| COc1cc(C(Nc2ccccn2)c2ccc3ccc(C)nc3c2O)cc(OC)c1O (stereo unspecified) | > 6.40 |
| COc1ccc2nc(N3C(=O)/C(=C/c4ccc(Cl)cc4)NC3=S)sc2c1 | 5.85 |

| Structure (SMILES) | pIC50 |
| --- | --- |
| Cc1cc(C(=O)N/N=C/c2ccc(O)c([N+](=O)[O-])c2)c(C)n1-c1ccc(F)cc1 | 5.63 |
| Nc1scc2c(C(=O)N/N=C/c3ccc(Cl)cc3)nn(-c3ccccc3)c(=O)c12 | 5.88 |
| O=C(O)c1cccc2c1NC(C(=O)O)C1CC(Sc3ccccc3[N+](=O)[O-])C(Cl)C21 (stereo unspecified) | 6.05 |
| Brc1ccc(C2Nc3cccc4cccc(c34)N2)s1 | > 6.40 |
| Cc1ccc([N+](=O)[O-])cc1N=Nc1c(-c2ccc([N+](=O)[O-])cc2)[nH]n(C(N)=S)c1=O | > 6.40 |
| CCCCCn1c(N)c(-c2nc3ccccc3o2)c2c([N+](=O)[O-])nn(CC)c(=O)c21 | 5.55 |
| CCOC(=O)c1c(C)oc2c1c(CN1CCN(C(=O)OCC)CC1)c(O)c1ccccc12 | > 6.40 |
| CN(C)S(=O)(=O)c1cccc(-c2nn(-c3ccccc3)cc2/C=C2\SC(=S)NC2=O)c1 | 6.32 |
| CC(C)(C)C1=CC=C(C(C)(C)C)C(=O)C1=O | > 6.40 |
| Cc1ccc(-c2cc(C(=O)O)c3cc(Br)ccc3n2)o1 | 5.33 |
| CCCCN(CC)CCNc1c(N2CCN(C(=O)OCC)CC2)c(=O)c1=O | 5.66 |
| O=[N+]([O-])c1cc(CN2CCOCC2)c2cccnc2c1O | > 6.40 |
| O=C1NC(=O)/C(=C\c2ccc(O)cc2O)S1 | > 6.40 |
| O=c1c(Cl)c(N/N=C/c2ccc(Cl)cc2)cnn1-c1ccccc1 | 5.35 |
| O=C1OC(c2cccs2)=N/C1=C/c1ccc(-c2cccc(C(=O)O)c2)o1 | < 4.27 |
| Cc1ccc(/C=C2\SC(=S)N(Cc3ccccc3)C2=O)o1 | < 4.27 |
| COc1ccc(CCNC(=O)CN(c2ccc(OC)c(OC)c2)S(C)(=O)=O)cc1 | < 4.27 |
| CCOc1ccc(N=C2NC(=O)S/C2=C\c2ccc(O)cc2)cc1 | 5.90 |
| CC(OC(=O)c1cccc(N2C(=O)c3ccccc3C2=O)c1)C(=O)Nc1ccc(N(C)C)cc1 (stereo unspecified) | < 4.27 |
| COc1ccc(C2=NN(c3nc(-c4ccccc4)c(CC(=O)O)s3)C(c3ccco3)C2)cc1 (stereo unspecified) | 4.93 |
| O=[N+]([O-])c1cc(Cl)cc(/C=N/NC(=S)Nc2cc(S(=O)(=O)N3CCOCC3)ccc2Cl)c1O | > 6.40 |
| O=[N+]([O-])c1ccc(O)c(/C=N/Nc2ccc(Cl)nn2)c1 | 4.78 |
| O=C(Nc1ccc([N+](=O)[O-])cc1)Nc1ccc(N2CCOCC2)c2nonc12 | 5.33 |
